Drawing on PubChem BioAssay AID602211 (Sanford-Burnham Center for Chemical Genomics, 2012), this text covers IC50 for 59 compounds.

Active and inactive are the calls of the source.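 Rule for the calls: active = mean IC50 at or below 10 µM; inactive = the rest.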

This assay relates to H9c2 cardiomyocytes, H2O2 protection, ATPLite viability, 2 h. Put plainly: H2O2-induced H9c2 cell death suppression – ATPLite luminescence, set 2, dose response (AID 602211).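 Note: potency is for protection so actives keep ATP signal up against peroxide killing.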
On to `c1cncc(-c2nc(NCC3COc4ccccc4O3)c3ccccc3n2)c1` (centres undefined), for which the IC50 (commonly the concentration that gives 50% inhibition) is > 79 µM (inactive).

Regarding `COc1ccc(C(=O)COC(=O)C(CCCCN2C(=O)C3C4C=CC(C4)C3C2=O)N2C(=O)C3C4C=CC(C4)C3C2=O)cc1` (centres undefined), the IC50 is 4.84 µM.

Consider `CC1(c2ccccc2)NC(=O)N(CC(=O)Nc2cccc(/C=C/c3ccccn3)c2)C1=O` (centres undefined), for which the half-maximal inhibitory concentration (IC50) is 9.76 µM.

Consider `Cc1ccc(-c2nn3c(-c4ccco4)nnc3c3ccccc23)cc1S(=O)(=O)NCC1CCCO1` (centres undefined), for which the IC50 was 10.6 µM (inactive).

`COc1ccc(OCC(O)Cn2c(Br)nc3c2c(=O)[nH]c(=O)n3C)cc1` (centres undefined): the IC50 is 15.9 µM (inactive).

With `COC(=O)c1cc(NC(=O)Nc2cc(OC)ccc2OC)cc(C(=O)OC)c1`, the IC50 was 22.3 µM (inactive).

For the compound `COc1ccc(C(=O)O/N=C(/c2ccccc2)c2ccncc2)cc1OC`, the IC50 was 10.7 µM (inactive).

Take `O=S(=O)(c1ccccc1)N1CCN(c2nc(-c3cccnc3)nc3ccccc23)CC1`: the half-maximal inhibitory concentration (IC50) was 4.54 µM.

Regarding `CCOC(=O)c1nc(Nc2ccc(C(=O)OC)cc2)c2ccccc2n1`, the IC50 was 6.89 µM.

With `COc1cc(/C=N/NC(=O)NC23CC4CC(CC(C4)C2)C3)ccc1OCC(N)=O`, the IC50 was 2.84 µM.

Take `C[C@@H]1ON(C)[C@H]2C[C@H]3c4[nH]c5ccc(-c6ccc7c(c6)OCO7)cc5c4CCN3C[C@@H]12`: the IC50 was > 79 µM (inactive).

Turning to `CCn1c(=O)cc(OCC(=O)Nc2ccccc2C#N)c2ccccc21`, the IC50 was 11.9 µM (inactive).

`CCOC(=O)C1=C(C)NC(C)=C(C(=O)OCC)C1C(=O)OCC(=O)NC1CCCCC1`: the IC50 is 3.32 µM.

As for `Cn1c(=O)c2[nH]c(NN=Cc3cccc(Br)c3)nc2n(C)c1=O`, the IC50 was 4.39 µM.

As for `COc1cc(-c2cc(C(=O)Nc3ccccc3N3CCOCC3)c3ccccc3n2)cc(OC)c1OC`, the IC50 is 5.8 µM.

For `Cc1ccc(C(=O)Nc2cccc(C(F)(F)F)c2)cc1NC(=O)c1csc(-c2ccncc2)n1`, the 50% inhibitory concentration (IC50) is 5.51 µM.

In the case of `CCOC(=O)C1=C(C)N=c2s/c(=C\c3ccncc3)c(=O)n2C1c1ccc2c(c1)OCO2` (centres undefined), the IC50 is 8.34 µM.

Consider `COc1cc(C(=O)NCC(=O)N/N=C/c2ccc(-c3cccc([N+](=O)[O-])c3)o2)cc(OC)c1OC`, for which the half-maximal inhibitory concentration (IC50) is 9.76 µM.

As for `COc1cc(/C=N/NC(=O)c2ccccc2)ccc1OS(=O)(=O)c1ccccc1`, the half-inhibitory concentration (IC50) is 6.29 µM.

Turning to `COc1cc(-c2cnc3c(NC=O)cc(-c4ccsc4)cn23)cc(OC)c1OC`, the IC50 is > 79 µM (inactive).

`COc1cc(-c2nnc(-c3cc(-c4ccccc4)nc4ccccc34)o2)cc(OC)c1OC`: the IC50 is 4.14 µM.

Regarding `COc1ccc(N(Cc2cc3cc(OC)ccc3[nH]c2=O)C(=O)c2cccnc2)cc1`, the IC50 is 19.1 µM (inactive).

On to `CCCNC(=O)c1ccc(N2CCC3(CC2)CC(c2ccccc2)=NO3)c(NC(=O)c2ccco2)c1`, for which the 50% inhibitory concentration (IC50) was 4.21 µM.

On to `C[C@@H](NC(=O)c1nc[nH]c1C(=O)NCC(=O)OCc1ccccc1)c1ccccc1`, for which the IC50 was 51.6 µM (inactive).

Turning to `O=C(Nc1ccc2c(c1)OCO2)c1cnn2c(C(F)(F)F)cc(-c3ccco3)nc12`, the IC50 was 2.58 µM.

For `NC(=O)c1nsc(C(=O)N(c2ccccc2)C(C(=O)NC2CCCC2)c2ccc3ncccc3c2)c1N` (centres undefined), the 50% inhibitory concentration (IC50) is 3.35 µM.

Regarding `COC(=O)c1[nH]c2ccccc2c1NC(=O)CNC1CCCCC1`, the 50% inhibitory concentration (IC50) is 8.49 µM.

Take `O=C(NCCc1c[nH]c2ccccc12)C(=O)NCC(c1ccco1)N1CCN(c2ccccc2F)CC1` (centres undefined): the half-maximal inhibitory concentration (IC50) was 5.64 µM.

For the compound `Cc1c(OCC(=O)NCCN2CCOCC2)ccc2c1oc(=O)c1ccccc12`, the half-maximal inhibitory concentration (IC50) is 5.33 µM.

For the compound `C/C(=N\Nc1nnc2c3ccccc3n(C)c2n1)c1ccc(C)o1`, the IC50 was 10.4 µM (inactive).

Regarding `CCOC(=O)C1=C(C)Nc2ccccc2N=C1NC(=O)c1oc2ccccc2c1COC`, the IC50 was 2.89 µM.

On to `COc1ccc2cc3cc(C(=O)NCCc4ccc(OC)c(OC)c4)oc3nc2c1`, for which the half-inhibitory concentration (IC50) was 4.28 µM.

Regarding `COc1ccc(-c2nc(NC(=O)c3ccc(OCC(=O)N4CCOCC4)c(OC)c3)sc2C)cc1`, the IC50 is > 79 µM (inactive).

Regarding `CCOc1cc(/C=C/c2ccc3cccc([N+](=O)[O-])c3n2)ccc1OCC(=O)N(C)C`, the IC50 was 9.02 µM.

For the compound `COc1ccc(/C=C/C(=O)c2ccccc2O)cc1CN1CCOCC1`, the half-maximal inhibitory concentration (IC50) was 7.14 µM.

As for `CC(=O)N1CCN(c2ccccc2NC(=O)c2ccc(-c3cccc([N+](=O)[O-])c3)o2)CC1`, the IC50 was 23.7 µM (inactive).

For the compound `CCOC(=O)c1ccc(-c2ccc3ncnc(NCc4csc(C)n4)c3c2)o1`, the IC50 is > 79 µM (inactive).

For `Nc1c(C(=O)N/N=C/c2cccnc2)oc2nc(-c3ccccc3)cc(-c3ccco3)c12`, the IC50 was 2.86 µM.

With `O=C(NCC1CCCO1)C(c1ccc(F)cc1)N(C(=O)Cn1nnc(-c2ccc(F)cc2)n1)c1cccc(O)c1` (centres undefined), the half-inhibitory concentration (IC50) is 4.48 µM.

Regarding `COc1ccccc1OP(=O)(Nc1cccnc1)Oc1ccccc1OC`, the IC50 was 2.28 µM.

As to `C[C@H]1Cn2cnc(C(=O)N[C@@H](Cc3c[nH]c4ccccc34)C(=O)OC(C)(C)C)c2C(=O)N1`, the IC50 is 24.1 µM (inactive).

In the case of `CCC(c1nnnn1Cc1ccccc1)N1CCC(n2c(=O)[nH]c3ccccc32)CC1` (centres undefined), the IC50 was > 79 µM (inactive).

As for `NC(=O)c1cc2ccccc2o/c1=N\NC(=O)c1ccc(F)cc1`, the IC50 was 4.67 µM.

Consider `Cc1cc(C)cc(OCC(=O)Nc2cccc(-c3nc4ncccc4o3)c2)c1`, for which the IC50 was > 79 µM (inactive).

Turning to `Cc1ccc2[nH]c(=O)c(CN(Cc3ccco3)S(=O)(=O)c3c(C)ccc4nsnc34)cc2c1`, the half-maximal inhibitory concentration (IC50) was 1.32 µM.

Take `COc1ccc(OC)c(N(CC(=O)Nc2cccnc2)S(=O)(=O)c2ccc(OC)c(OC)c2)c1`: the IC50 was 16.5 µM (inactive).

In the case of `CCOc1ccccc1Nc1nnc(SCc2nnc(-c3cc(OC)c(OC)c(OC)c3)o2)s1`, the IC50 is 9.01 µM.

For the compound `COc1ccccc1NC(=O)COc1ccc(C(=O)OCC(=O)NC(C)(C)C)cc1OC`, the IC50 is 13.7 µM (inactive).

On to `COc1ccc(-c2cc3nc(-c4ccccc4)cc(N4CCN(C(=O)c5ccoc5)CC4)n3n2)cc1`, for which the half-maximal inhibitory concentration (IC50) is 4.91 µM.

For `COc1ccc(CN(C)C(=O)C(Cc2ccccc2)NC(=O)c2ccccc2)cc1F` (centres undefined), the IC50 was 2.67 µM.

In the case of `CC(=O)Nc1cc(-c2cccc(NS(C)(=O)=O)c2)cn2c(-c3cccc(C(C)=O)c3)cnc12`, the IC50 was 15 µM (inactive).

With `CCOC(=O)C1CCN(C(c2cc3c(C)ccc(C)c3[nH]c2=O)c2nnnn2C2CCCCC2)CC1` (centres undefined), the IC50 was > 79 µM (inactive).

In the case of `COc1ccc(Nc2nnc(-c3ccc(O)cc3)c3ccccc23)cc1C(N)=O`, the IC50 is 11.3 µM (inactive).

As to `CCCCNC(=O)c1cn(-c2ccc(OCC)cc2)c(=O)c2cc(OC)c(OC)cc12`, the IC50 was > 79 µM (inactive).

In the case of `N#Cc1ccccc1S(=O)(=O)N1CCN(c2nc(-c3cccnc3)nc3ccccc23)CC1`, the IC50 was > 79 µM (inactive).

Turning to `COc1cccc(-c2cnc3c(NC(C)=O)cc(-c4cc(OC)c(OC)c(OC)c4)cn23)c1`, the half-maximal inhibitory concentration (IC50) is 3.27 µM.

For `CC(=O)Nc1cc(-c2ccc(C(=O)N3CCOCC3)cc2)cn2c(-c3ccc(C(C)=O)cc3)cnc12`, the IC50 was > 79 µM (inactive).

As for `COc1cc(/C=N/n2nnnc2Nc2ccccc2)cc(OC)c1OC`, the IC50 was 9.53 µM.

As to `Cc1[nH]c2ccccc2c1/C=N/NC(=O)c1cc(-c2ccccc2)n[nH]1`, the IC50 was 2.89 µM.
